Like-named read-outs stand apart in the source and are kept apart here.
Columns and labels:
[1] = test system: tumor cell lines B16-F10, HepG2, K562 and HL-60; experiment: Alamar Blue cytotoxicity assay, summary over the tumor cell lines tested; conditions: 72 h, read-out: IC50 in at least one of the tumor cell lines tested
Method: (§3) B16-F10, HepG2, K562 and HL-60 tumor cell lines were kindly donated by Hospital A.C. […] Cells were maintained in RPMI 1640 medium (Gibco-BRL, Gaithersburg, MD, USA) with 10% fetal bovine serum (Cultilab, Campinas, Brazil), 2 mM L-glutamine (Vetec Química Fina, Duque de Caxias, Brazil) and 50 μg/mL gentamycin (Novafarma, Anápolis, Brazil). Adherent cells were collected by treatment with 0.25% trypsin-EDTA solution (Gibco-BRL). All cell lines were cultured in flasks at 37 °C in 5% CO2 and sub-cultured every 3–4 days to maintain exponential growth. All cell lines were tested for mycoplasma using a Mycoplasma Stain Kit (Sigma-Aldrich, St. Louis, MO, USA) to confirm that the cells were free from contamination.
(§4) Cell viability was quantified using the Alamar Blue assay, according to Ahmed et al. [23]. Cells were placed in 96-well plates for all experiments (0.7 × 10^5 cells/mL for adherent cells or 0.3 × 10^6 cells/mL for suspended cells in 100 μL of medium). After 24 h, the alkaloids (in a range of eight different concentrations varying from 0.19 to 25 μg/mL) were dissolved in dimethyl sulfoxide (DMSO, Sigma-Aldrich Co.), and the solution was added to each well and incubated for 72 h. […] Negative controls received the vehicle that was used for diluting the alkaloids (0.5% DMSO). Four (for cell lines) or 24 h (for PBMCs) before the end of incubation, 20 μL of a stock solution (0.312 mg/mL) of the Alamar Blue (resazurin, Sigma-Aldrich Co.) was added to each well. The absorbance at 570 nm and 600 nm was measured using a SpectraMax 190 Microplate Reader (Molecular Devices, Sunnyvale, CA, USA), and the drug effect was quantified as the percentage of control absorbance.

[2] = test system: HL-60 (human promyelocytic leukemia); experiment: Alamar Blue cytotoxicity assay, HL-60; format: cell-based; conditions: for IC50: Homo sapiens, HL-60, Alamar Blue, 72 h incubation, read-out: IC50 HL60
Method: as §3, §4

[3] = test system: HepG2 (human hepatocellular carcinoma); experiment: Alamar Blue cytotoxicity assay, HepG2; format: cell-based; conditions: 72 h incubation
Excerpt: (§1) Camargo, São Paulo, Brazil.

[4] = test system: K562 (human chronic myelocytic leukemia); experiment: Alamar Blue cytotoxicity assay, K562; format: cell-based; conditions: 72 h incubation
Excerpt: as §1

[5] = test system: B16-F10 (mouse melanoma); experiment: Alamar Blue cytotoxicity assay, B16-F10; format: cell-based; conditions: 72 h incubation
Excerpt: as §1

[6] = test system: peripheral blood mononuclear cells (PBMCs); experiment: Alamar Blue cytotoxicity assay, non-tumor PBMCs; format: cell-based; conditions: Homo sapiens, PBMC, 72 h incubation, ConA-stimulated PBMCs
Method: Heparinized blood was collected from 20- to 35-year-old, healthy non-smokers who had not taken any drugs for at least 15 days prior to sampling, and the peripheral blood mononuclear cells (PBMCs) were isolated using a Ficoll density gradient in a Ficoll-Paque Plus (GE Healthcare Bio-Sciences AB, Uppsala, Sweden). PBMCs were washed and resuspended at a concentration of 0.3 × 10^6 cells/mL in RPMI 1640 medium with 20% fetal bovine serum, 2 mM L-glutamine and 50 μg/mL gentamycin at 37 °C with 5% CO2. Concanavalin A (ConA, Sigma-Aldrich Co.) was used as a mitogen to trigger cell division in T-lymphocytes. ConA (10 μg/mL) was added at the beginning of culture, and the cells were treated with the test compounds after 24 h. Cell viability was examined using a trypan blue exclusion assay for all experiments. Over 90% of the cells were viable at the beginning of the culture. The Research Ethics Committee of the Oswaldo Cruz Foundation (Salvador, Bahia, Brazil) approved the experimental protocol (#031019/2013). All participants signed a written informed consent to participate in the study.

[7] = Alamar Blue cytotoxicity assay, summary over the tumor cell lines tested; conditions: mouse (B16-F10); human (HepG2, K562, HL-60)
Method: as §3, §4

[8] = test system: HepG2 cells; experiment: Annexin assay (phosphatidylserine externalization, flow cytometry), HepG2; format: cell-based, human; conditions: HepG2, 24 h
Method: (§2) The following set of experiments was performed to investigate the mechanisms involved in the cytotoxic action of the alkaloids lanuginosine and (+)-xylopine. In all experiments, 2 mL of a HepG2 cell solution (0.7 × 10^5 cells/mL) was placed in 24-well plates and incubated overnight to allow the cells to adhere to the plate surface. The cells were then treated for 24 h with the alkaloids lanuginosine (10 and 20 μg/mL) and (+)-xylopine (5 and 10 μg/mL). The negative control was treated with the vehicle (0.2% DMSO) used for diluting the alkaloids. […] Cell viability was assessed for all experiments using a Trypan Blue exclusion assay.
Phosphatidylserine externalization was analyzed by flow cytometry. A FITC annexin V apoptosis detection kit (BD Biosciences, San Jose, CA, USA) was used to determine cell viability (viable, early apoptotic, late apoptotic and necrotic cells). Cells were washed twice with saline and then resuspended in 100 μL of binding buffer with 5 μL of propidium iodide and 5 μL of FITC annexin V. The cells were gently mixed on a vortexer and incubated for 15 min at room temperature (20–25 °C) in the dark. Afterwards, 400 μL of binding buffer was added to each tube and the cells were analyzed by flow cytometry on a BD LSRFortessa cytometer using BD FACSDiva Software (BD Biosciences) and Flowjo Software 10 (Flowjo LCC, Ashland, OR, USA). Ten thousand events were evaluated per experiment and cellular debris was omitted from the analysis.

[9] = test system: HepG2 cells; experiment: Internucleosomal DNA fragmentation and cell cycle distribution (flow cytometry, propidium iodide), HepG2; format: cell-based, human; conditions: HepG2, 24 h, 1 µg/mL
Method: as §2
Cells were harvested in a lysis solution containing 0.1% triton X-100 (Sigma Chemical Co., St. Louis, MO, USA), 2 µg/mL propidium iodide (Sigma Chemical Co.), 0.1% sodium citrate and 100 µg/mL RNAse (Sigma Chemical Co.). Cell fluorescence was determined by flow cytometry on a BD LSRFortessa cytometer using BD FACSDiva Software (BD Biosciences) and Flowjo Software 10. Ten thousand events were evaluated per experiment and cellular debris was omitted from the analysis.

[10] = test system: HepG2 cells; experiment: Trypan Blue dye exclusion, HepG2; format: cell-based, human; conditions: HepG2, 24 h, lanuginosine 10 and 20 μg/mL, (+)-xylopine 5 and 10 μg/mL
Method: as §2

[11] = test system: HepG2 cells; experiment: Acridine Orange/ethidium bromide staining, fluorescence microscopy, HepG2; format: cell-based, human; conditions: HepG2, 24 h, p < 0.05
Method: as §2
Cells were pelleted and resuspended in saline (25 μL). Then, 1 μL of aqueous solution of AO/EB (100 μg/mL, Sigma-Aldrich Co.) was added, and the cell viability changes were observed under a fluorescence microscope (Olympus BX41). In this assay, AO permeates all cells and makes the nuclei appear green. EB is only taken up by cells when the cytoplasmic membrane integrity is lost and stains the nucleus red. EB also dominates over AO. Thus, live cells have a normal green nucleus; early apoptotic cells have a bright green nucleus with condensed or fragmented chromatin; late apoptotic cells display condensed and fragmented orange chromatin; cells that have died from direct necrosis have a structurally normal orange nucleus. Three hundred cells were counted per sample and classified as viable, apoptotic or necrotic.

[12] = test system: HepG2 cells; experiment: Morphological analysis with May-Grünwald-Giemsa staining, HepG2; format: cell-based, human; conditions: HepG2, 24 h; lanuginosine 10 and 20 μg/mL, (+)-xylopine 5 and 10 μg/mL
Method: as §2
To evaluate alterations in morphology, cells were cultured under a coverslip, fixed with methanol for 30 s and stained with May-Grünwald-Giemsa stain. Morphological changes were examined by light microscopy (Olympus BX41, Tokyo, Japan) using Image-Pro software (Media Cybernetics, Rockville, MD, USA).

Compound | IC50 [1] | IC50 [2] | IC50 ([2]; value in brackets) | IC50 [3] | IC50 ([3]; value in brackets) | IC50 [4] | IC50 ([4]; value in brackets) | IC50 [5] | IC50 ([5]; value in brackets) | IC50 [6] | IC50 at 72 h [7] | other results
COc1cc2c(cc1O)CCN1Cc3c(ccc(O)c3OC)CC21 (single isomer, unassigned; (+)) [(+)-Discretamine, (+)-discretamine] | < 20 µg/mL | 10.1 µg/mL | 30.8 µM | 14 µg/mL | 42.8 µM | 10.6 µg/mL | 32.4 µM | 18.8 µg/mL | 57.3 µM | > 25 µg/mL | – | –
COc1cc2c(cc1O)CC1c3c(cc(OC)c(OC)c3-2)CCN1C (single isomer, unassigned; (+)) [(+)-N-Methyllaurotetanine, (+)-N-methyllaurotetanine] | – | > 25 µg/mL | – | > 25 µg/mL | – | > 25 µg/mL | – | > 25 µg/mL | – | > 25 µg/mL | > 25 µg/mL | –
COc1cc2c(cc1OC)-c1c(OC)c(OC)c(OC)c3c1C(C2)NCC3 (single isomer, unassigned; (+)) [(+)-Norpurpureine, (+)-norpurpureine] | < 20 µg/mL | 10.1 µg/mL | 27.2 µM | > 25 µg/mL | – | 16.7 µg/mL | 44.9 µM | 21.1 µg/mL | 56.6 µM | 17.9 µg/mL | – | IC50 ([6]; value in brackets): 48.2 µM
COc1ccc(CC2c3cc(O)c(OC)cc3CCN2C)cc1O (single isomer, unassigned; (+)) [(+)-Reticuline, (+)-reticuline] | < 20 µg/mL | 23.8 µg/mL | 72.1 µM | 15.3 µg/mL | 46.5 µM | > 25 µg/mL | – | > 25 µg/mL | – | > 25 µg/mL | – | –
COc1cc2c(cc1O)CC1c3cc(OC)c(OC)cc3CCN1C2 (single isomer, unassigned; (-)) [(−)-Corytenchine, (−)-corytenchine] | – | > 25 µg/mL | – | > 25 µg/mL | – | > 25 µg/mL | – | > 25 µg/mL | – | > 25 µg/mL | > 25 µg/mL | –
c1ccc2c(c1)C[C@H]1NCCc3cc4c(c-2c31)OCO4 [(+)-Anonaine, (+)-anonaine] | < 20 µg/mL | 10.1 µg/mL | 37.9 µM | 14 µg/mL | 52.8 µM | 10.6 µg/mL | 39.9 µM | 18.8 µg/mL | 70.7 µM | > 25 µg/mL | – | –
COc1cc(O)c2c(c1)C[C@@H]1NCCc3cc4c(c-2c31)OCO4 [(+)-Calycinine, (+)-calycinine] | < 20 µg/mL | 18.6 µg/mL | 59.6 µM | > 25 µg/mL | – | > 25 µg/mL | – | 22.2 µg/mL | 71 µM | > 25 µg/mL | – | –
COc1cc2c(cc1O)CCN1Cc3cc(OC)c(OC)cc3C[C@@H]21 [(+)-Discretine, (+)-discretine] | < 20 µg/mL | 13 µg/mL | 37.9 µM | 7.89 µg/mL | 23.1 µM | 14.8 µg/mL | 43.4 µM | 16.1 µg/mL | 47.2 µM | > 25 µg/mL | – | –
COC1=C[C@]23CCN(C)[C@H](Cc4cc(OC)c(O)cc42)C3=CC1=O [(+)-Flavinantine, (+)-flavinantine] | – | > 25 µg/mL | – | > 25 µg/mL | – | > 25 µg/mL | – | > 25 µg/mL | – | > 25 µg/mL | > 25 µg/mL | –
COc1cc2c(cc1OC)-c1c(OC)c(OC)cc3c1[C@H](C2)N(C)CC3 [(+)-Glaucine, (+)-glaucine] | – | > 25 µg/mL | – | > 25 µg/mL | – | > 25 µg/mL | – | > 25 µg/mL | – | > 25 µg/mL | > 25 µg/mL | –
COc1cc2c(cc1O)C[C@@H]1NCCc3cc(OC)c(OC)c-2c31 [(+)-Laurotetanine, (+)-laurotetanine] | – | > 25 µg/mL | – | > 25 µg/mL | – | > 25 µg/mL | – | > 25 µg/mL | – | > 25 µg/mL | > 25 µg/mL | –
CN1CCc2cc3c(c4c2[C@H]1Cc1ccccc1-4)OCO3 [(−)-Roemerine, (−)-roemerine] | – | > 25 µg/mL | – | > 25 µg/mL | – | > 25 µg/mL | – | > 25 µg/mL | – | > 25 µg/mL | > 25 µg/mL | –
COc1cc2c(cc1OC)CN1CCc3cc(OC)c(OC)cc3[C@@H]1C2 [(−)-Xylopinine, (−)-xylopinine] | – | > 25 µg/mL | – | > 25 µg/mL | – | > 25 µg/mL | – | > 25 µg/mL | – | > 25 µg/mL | > 25 µg/mL | –
COc1cccc2c1C(=O)c1c(O)c3c(c(O)c1C2=O)C[C@@](O)(C(=O)CO)C[C@@H]3O[C@H]1C[C@H](N)[C@H](O)[C@H](C)O1 [Doxorubicin, doxorubicin, reference compound] | – | 0.09 µg/mL | – | 0.08 µg/mL | 0.15 µM | 0.15 µg/mL | 0.28 µM | 0.08 µg/mL | 0.15 µM | 2.47 µg/mL | – | IC50 ([6]; value in brackets): 4.54 µM; apoptotic characteristics in the cells ([8]; doxorubicin 1 μg/mL, positive control): induced apoptotic characteristics; Cell Cycle Phases (%) S ([9]; NC 16.11 ± 1.89): 12.00 ± 1.43 %; Cell Cycle Phases (%) G2/M ([9]; NC 19.93 ± 6.12): 61.94 ± 5.52 %
COc1ccc2c(c1)C(=O)c1nccc3cc4c(c-2c13)OCO4 [Lanuginosine, lanuginosine] | < 4 µg/mL | 7.81 µg/mL | 25.5 µM | 3.89 µg/mL | 12.7 µM | 6.61 µg/mL | 21.6 µM | 8.46 µg/mL | 27.6 µM | 24.5 µg/mL | – | number of non-viable cells [10]: without increasing the number of non-viable cells; number of viable cells ([10]; p < 0.05): reduce the number of viable cells; percentage of necrotic cells (AO/EB) ([11]; at the higher concentration): significantly increased the percentage of necrotic cells; number of apoptotic cells (AO/EB) ([11]; lanuginosine 10 and 20 μg/mL, (+)-xylopine 5 and 10 μg/mL): increased number of apoptotic cells; selectivity index (SI) ([2]; SI = IC50[PBMC]/IC50[HL-60]): 3.1; IC50 ([6]; value in brackets): 80.1 µM; phosphatidylserine exposure ([8]; p < 0.05, without affecting the cell membrane integrity): significant increase in phosphatidylserine exposure; cell morphology [12]: morphology consistent with apoptosis, including chromatin condensation and fragmentation of the nuclei
COc1cc2c(cc1OC)-c1c(OC)c(OC)cc3ccnc(c13)C2=O [Oxoglaucine, oxoglaucine] | < 20 µg/mL | 5.9 µg/mL | 16.8 µM | > 25 µg/mL | – | 12.5 µg/mL | 35.5 µM | 19.1 µg/mL | 54.4 µM | 10.2 µg/mL | – | IC50 ([6]; value in brackets): 29.1 µM
